Laboratory results published in US10450260B2, “NO- and H2S-releasing compounds” (RESEARCH FOUNDATION OF THE CITY UNIVERSITY OF NEW YORK, priority 2011, dated 2019).
“Also recorded” adds a separate entry of the source. Where two headings read alike, the source gives them in different places.

How the values were obtained:
[1] = test system: SW480 colon cancer cell xenograft; experiment: SW480 xenograft in athymic nude mice; assay type: in vivo, mouse
From the text: (§1) Male athymic nude (NU/NU) mice, age 5 weeks, were purchased from Charles River Laboratories, Inc., (Wilmington, Mass.) and were housed according to institutional and NIH guidelines.
(§2) Human colon (SW480), Breast (MCF-7, MDA-MB-231), and pancreas (MIA PaCa2) cancer cells (2×10^6) suspended in Matrigel (BD Biosciences, San Jose, Calif.) 50% v/v were inoculated subcutaneously in the right flanks of each mouse (10 mice per group) using a 1-mL syringe and 22-gauge needles. After 10 days the animals from each implanted cell line were randomly divided into 2 groups (N=5/group) and gavaged daily with either vehicle (1% methylcelloluse) or NOSH-naproxen (100 mg/kg) or NOSH (100 mg/kg), the ADT-OH-butyl nitrate compound that releases H2S and NO, in the case of colon cancer xenografts; or NOSH-aspirin (100 mg/kg body weight) in the breast and pancreatic cancers groups. The tumor size was measured every other day using electronic calipers, the tumor volumes were calculated using the following formula: length×width^2/2. The weights of the mice were also recorded every 3 days. Twenty-seven (27) to thirty (30) days post inoculation, the mice were sacrificed, the tumors collected, weighed, and photographed.

LPS-induced fever = experiment: Anti-pyretic activity, LPS-induced fever; assay type: in vivo, rat; details: 2-4 hours after LPS injection
Procedure: To induce fever, LPS (50 μg/kg, Sigma, St. Louis, Mo., USA) was administered intraperitoneally to the animals an hour before the administration of test drugs as described previously (Pinto L et al., Pharm Pharmacol Communication 1988: 4:502-505). Rectal temperature was measured by inserting a lubricated thermistor probe (external diameter: 3 mm) 2.8 cm into the rectum of the animal. […] Rectal temperatures were taken every hour for 5 hours.

HT-29 cells = experiment: LDH release assay; assay type: cell-based, human
Procedure: For determination of lactate dehydrogenase (LDH) activity, HT-29 cells (1×10^5 cells/well) were incubated in 96-well plates with different concentrations of NOSH-1. After incubation for 2, 4, 8, 12 and 24 h, LDH activity in the supernatant was assessed using the LDH Cytotoxicity Assay Kit (Cayman Chemical Ann Arbor, Mich.), according to the manufacturer's instructions. Cytotoxicity was calculated as a percentage based on the LDH activity released from cells that had been treated with NOSH-1 compared with LDH activity from cultures incubated with Triton X-100. The % of LDH release was determined using the formula (E−C)/(T−C)×100, where E is the experimental absorbance of cell cultures, C is the control absorbance of cell-free culture medium, and T is the absorbance corresponding to the maximal (100%) LDH release of Triton-lysed cells.^1

[2] = test system: MCF-7 (ER+) breast cancer cell xenograft; experiment: MCF-7 xenograft in athymic nude mice; assay type: in vivo, mouse
From the text: as §1, §2

PGE2 = PGE2 in rat paw exudates; assay type: in vivo; details: for PGE2 levels in the paw exudate versus vehicle (FIG. 2B): P<0.01, four rats in each group
Procedure: Rats were euthanized by asphyxiation in a CO2 chamber. […] The absorbance at 412 nm was measured after 1 h incubation at room temperature. […] Proteins were determined by Biorad assay.
Proteins were determined by Biorad assay.

HT-29 colon cancer cells = experiment: Cell cycle analysis, PI staining and flow cytometry; assay type: cell-based, human
Procedure: Growth inhibition was measured using a colorimetric MTT assay kit (Roche, Indianapolis, Ind.). Proliferation (PCNA) was assessed using an ELISA kit from Calbiochem, (La Jolla, Calif.). Cell cycle phase distributions and apoptosis of control and treated cells were determined as previously described. All methods are described in Chattopadhyay et al., Biochemical Pharmacology, 2012, 83(6), 715-722.

[3] = test system: HT-29 human colon cancer cells; experiment: MTT cell growth inhibition, HT-29; assay type: cell-based; details: HT-29 cells; for IC50: Homo sapiens
[4] = test system: MIA PaCa2 pancreatic cancer cell xenograft; experiment: MIA PaCa2 xenograft in athymic nude mice; assay type: in vivo, mouse
From the text: as §1, §2

COX-2 = experiment: Western blot of COX-2 in paw exudates; assay type: in vivo, rat; details: NOSH-1 at 2 doses one hour before carrageenan
Procedure: Exudates (oedema fluid) and some tissue were homogenized in lysis buffer (0.1% Triton X-100, 50 μM pepstatin, 0.2 mM leupeptin, 1 μg/mL aprotinin, 10 mg/ml phenylmethylsulfonyl fluoride, 50 mM Tris, and 10 mM EDTA). Samples were then centrifuged, and the protein concentration of the supernatant was determined by colorimetric assay (Bio-Rad, Hercules, Calif.). Protein (30 μg) was separated on a 10% polyacrylamide gel and then transferred to a nitrocellulose membrane (Bio-Rad, Hercules, Calif.). Proteins were probed with monoclonal mouse antibody against COX-1 and COX-2 (1:500; Cayman Chemical, Ann Arbor, Mich.). The membrane was then incubated with a goat anti-mouse IgG secondary antibody conjugated to horseradish peroxidase (Santacruz Biotechnology, Santa Cruz, Calif.). A chemiluminescence reagent (Amersham Pittsburg, Pa.) was added to visualize the labeling according to the manufacturer's instructions.

[5] = 100 mg/kg daily, day 30, vs control

In the case of CC(C(=O)Oc1ccc(-c2cc(=S)ss2)cc1)c1ccc2cc(OC(=O)CCCO[N+](=O)[O-])ccc2c1 (centres unmarked) [NOSH-7, 6-(1-oxo-1-(4-(3-thioxo-3H-1,2-dithiol-5-yl)phenoxy)propan-2-yl)naphthalen-2-yl 4-(nitrooxy)butanoate], the mean tumor volume ([1]; 100 mg/kg daily gavage, end of study, control 2098±603) is reported as 379±73 mm^3, the “reduction of tumor mass” value [1, 5] is reported as 55% and the average tumor mass ([1]; 100 mg/kg daily, day 30, control 1.42±0.48) is reported as 0.63 ± 0.11 g. The “mean reduction of tumor volume” value ([1]; 100 mg/kg daily, vs control) was 82% and the “reduction of LPS-induced fever compared with parent NSAID” value (LPS-induced fever) was “appeared to be better in reducing LPS-induced fever”.

For O=C(CCCO[N+](=O)[O-])Oc1ccccc1C(=O)Oc1ccc(-c2cc(=S)ss2)cc1 [NOSH-1, 4-(3-thioxo-3H-1,2-dithiol-5-yl)phenyl 2-((4-(nitrooxy)butanoyl)oxy)benzoate], the LDH release (HT-29 cells; 4-times its IC50, 24 hours) was “less than 10%”, the LDH release (HT-29 cells; 4-times its IC50, shorter durations (2, 4, 6, 8 hours)) was 1-5% and the LDH release (HT-29 cells; at its IC50, shorter durations (2, 4, 6, 8 hours)) was 0.5-4%. For the same compound, the mean tumor volume ([2]; 100 mg/kg daily gavage, end of study, control 935±93) was 48±9 mm^3, the “reduction of tumor mass” value ([2]; 100 mg/kg daily, day 27, vs control) was 55% and the average tumor mass ([2]; 100 mg/kg daily, day 27, control 0.46±0.056) was 0.21 ± 0.035 g. For the same compound, the “mean reduction of tumor volume” value ([2]; 100 mg/kg daily, vs control) was 98%, the PGE2 levels in paw exudate (PGE2; NOSH-1 0.21 mmol/kg) was 42 ± 3 pg/mg and the PGE2 levels in paw exudate (PGE2; NOSH-1 0.52 mmol/kg) was 21 ± 4 pg/mg. The “PGE2 levels in the paw exudate versus vehicle (FIG. 2B)” value (PGE2) was “significant reduction in PGE2 levels”, the “cell population in G2/M phase” value (HT-29 colon cancer cells; 1×IC50, 24 hours, control 26.9±2.2) was 15.4±2.6% and the “cell population in S phase” value (HT-29 colon cancer cells; 1×IC50, 24 hours, control 30.2±2.3%) was 22.6±1.3%. For the same compound, the “cell population in G0/G1 phase” value (HT-29 colon cancer cells; 1×IC50, 24 hours, control 42.9±2%) was 62.0±2.3%, the “cell population in G0/G1 phase” value (HT-29 colon cancer cells; 2×IC50, 24 hours) was 74.2±1.2% and the “cell population in G2/M phase” value (HT-29 colon cancer cells; 2×IC50, 24 hours) was 9.5±1.8%. The “cell population in S phase” value (HT-29 colon cancer cells; 2×IC50, 24 hours) was 16.3±1.2, the “reduction of LPS-induced fever compared with parent NSAID” value (LPS-induced fever) was “appeared to be better in reducing LPS-induced fever” and the “Potency enhancement (ratio of IC50 values ASA/NOSH-1), 48 h” value ([3]; 48 h) was ~125,000 fold. For the same compound, the “Potency enhancement (ratio of IC50 values ASA/NOSH-1), 72 h” value ([3]; 72 h) was ~250,000 fold, the IC50 ([3]; 48 h, read-out: IC50, 48 h) was 0.0197 ± 0.0033 µM and the IC50 ([3]; 72 h, read-out: IC50, 72 h) was 0.0077 ± 0.0022 µM. For the same compound, the mean tumor volume ([4]; 100 mg/kg daily gavage, end of study, control 3265±476) was 285±117 mm^3, the “reduction of tumor mass” value [4, 5] was 75% and the average tumor mass ([4]; 100 mg/kg daily, day 30, control 2.45±2.7) was 0.61 ± 0.29 g. For the same compound, the “mean reduction of tumor volume” value ([4]; 100 mg/kg daily, vs control) was 91% and the “COX-2 expression in paw exudates induced by carrageenan” value (COX-2) was “inhibited induction; also recorded: dose-dependently inhibited”.

In the case of CC(=O)Oc1ccccc1C(=O)O [ASA, aspirin, reference compound], the “PGE2 levels in the paw exudate versus vehicle (FIG. 2B)” value (PGE2) is reported as “significant reduction in PGE2 levels”, the “PGE2 levels in paw exudate” value (PGE2; aspirin 0.21 mmol/kg, control 82±2 pg/mg) is reported as 12±3 pg/mg protein and the IC50 ([3]; 48 h, read-out: IC50, 48 h) is reported as 2500 µM. The IC50 ([3]; 72 h, read-out: IC50, 72 h) was 2000 µM.
